≈ marks a conversion by molar mass, not a printed value. Like-named read-outs stand apart in the source and are kept apart here.
How the values were obtained:
[1] = Volatility of pure compound by thermogravimetric determination; assay type: physicochemical; conditions: heating-up rate 10° C./min; for Volatility: temperature at weight drop of 2%: weight drop 2%; for Volatility: temperature at weight drop of 50%: weight drop 50%; for Volatility: temperature at weight drop of 80%: weight drop 80%
Method: To test volatility, the quadratic acid bisamides or the synthetic resins treated therewith were subjected to thermogravimetric determination (cf. Tables 1 and 6). The heating-up rate was 10° C./min. A DuPont 950 Thermogravimetric Analyzer was applied.

[2] = Extraction of stabilizers from polyamide 12 with boiling organic solvents; assay type: physicochemical; conditions: 0.25% by weight stabilizer
Excerpt: (a) Polyamide 12 (Number Average Mol. Wt. 30,000: Producer: Chemische Werke Hus AG, D-4370 Marl)
In a pug mill, polyamide 12 granules were combined with quadratic acid bisamides, and the resultant mixture was homogenized in a twin screw extruder. The granulated material obtained in this way was then molded into panels having a thickness of 1 mm, and chips of 30×10 mm were then cut therefrom.
(§1) The solubility values in water and dilute acetic acid (Tables 2 and 3), as well as the extraction values (Tables 4 and 7) confirm the low migrating tendency of the compounds according to the present invention.

[3] = Light exposure test (buckling test) with stabilizers in polyamide 12
[4] = Solubility of pure compound in 10% acetic acid; assay type: physicochemical; conditions: 22° C.; for solubility: 10% acetic acid
Excerpt: as §1

[5] = Volatility (sublimation) of stabilizers from polyether esters; assay type: physicochemical; conditions: from polyether ester; 195° C. and 0.1 mbar; 0.5% by weight
[6] = Extraction of stabilizers from polyether esters with boiling organic solvents; assay type: physicochemical; conditions: from polyether ester
Excerpt: (b) Polyether Esters (Number Average Mol. Wt. 25,000)
Into a polyether ester melt based on terephthalic acid, 1,4-butanediol, and polytetrahydrofuran, 0.5% by weight of the respective quadratic acid amide was introduced. After processing into granules, the latter were used to make press-molded panels of a thickness of 1 mm, from which chips were cut of 30×10 mm.
as §1

[7] = Light exposure test (buckling test) with stabilizers in polypropylene
[8] = Solubility of pure compound in water; assay type: physicochemical
Excerpt: as §1

[9] = with costabilizer mixture (benzotriazole, hexamethylenediamine phenol, phosphite; 0.25% each), 0.25% by wt. stabilizer (for salts: refers to the bisamide)
[10] = without costabilizer, 0.25% by wt. stabilizer (for salts: refers to the bisamide on which the salt is based)

Row | Structure (SMILES) | Stabilizing effect in polyamide 12, light exposure to break [3, 9] | Stabilizing effect in polyamide 12, light exposure to break [3, 10] [h] | solubility ([8]; 22° C.) [µg/mL] | solubility ([8]; 100° C.) [µg/mL] | further results
1 | CC1(C)CC2(CC(C)(C)N1)OC1(CCCCCCCCCCC1)NC2=O [B, 2,2,4,4-tetramethyl-3,20-diaza-7-oxa-21-oxodispiro[5,1,11,2]heneicosane] | – | – | – | – | Volatility: temperature at weight drop of 2% [1]: 200 °C; Volatility: temperature at weight drop of 50% [1]: 280 °C; Volatility: temperature at weight drop of 80% [1]: 300 °C; Degree of extraction after 8 hour treatment ([2]; boiling chloroform): 97.2 % of Maximally Extractable Amo; Degree of extraction after 8 hour treatment ([2]; boiling methanol): 83.1 % of Maximally Extractable Amo
2 | CCN(CC)c1c([O-])c(=[N+](CC)CC)c1=O [C, 1,3-Bis(diethylamino)cyclobutenediylium-2,4-diolate, reference compound] | 511 h | 460 | – | – | –
3 | CC1(C)CC(OC(=O)CCCCCCCCC(=O)OC2CC(C)(C)NC(C)(C)C2)CC(C)(C)N1 [Comparative Example A, sebacic acid di-4-hydroxy-2,2,6,6-tetramethylpiperidine ester] | – | – | – | – | Volatility: temperature at weight drop of 2% [1]: 220 °C; Volatility: temperature at weight drop of 50% [1]: 285 °C; Volatility: temperature at weight drop of 80% [1]: 300 °C; solubility [4]: 402 mg/mL (≈ 836000 µM); Degree of extraction after 8 hour treatment ([2]; boiling chloroform): 69.9 % of Maximally Extractable Amo; Degree of extraction after 8 hour treatment ([2]; boiling methanol): 68.7 % of Maximally Extractable Amo; Degree of sublimation after 24-hour treatment [5]: 88 % of Maximally Sublimable Quan; Degree of extraction after 8-hour treatment ([6]; methanol (65° C.)): 60 % of Maximally Extractable Qua; Degree of extraction after 8-hour treatment ([6]; toluene (110° C.)): 53 % of Maximally Extractable Qua; Stabilizing effect in polypropylene, light exposure to break ([7]; 0.2% by wt. stabilizer): 277 h
4 | C[C@@H]1CN(c2c([O-])c(=[N+]3C[C@@H](C)O[C@@H](C)C3)c2=O)C[C@H](C)O1 [E, 1,3-Bis(cis-2,6-dimethylmorpholino)cyclobutenediylium-2,4-diolate, reference compound] | 473 h | 432 | – | – | –
5 | CC1(C)CC(N=c2c(O)c(NC3CC(C)(C)NC(C)(C)C3)c2=O)CC(C)(C)N1 [Example 1, 1,3-Bis[2,2,6,6-tetramethyl-4-piperidylamino]cyclobutenediylium-2,4-diolate] | 1,076 h | 790 | < 20 | 150 (≈ 384 µM) | –
6 | CC1(C)CC(N=c2c(O)c(NC3CC(C)(C)NC(C)(C)C3)c2=O)CC(C)(C)N1 [Example 1.1, 1,3-bis[2,2,6,6-tetramethyl-4-piperidylamino]cyclobutenediylium-2,4-diolate] | – | – | – | – | Solubility of pure compound in 10% acetic acid [4]: 4.6 g/100 g 10% HAc
7 | CC1(C)CC(N=c2c(O)c(NC3CC(C)(C)NC(C)(C)C3)c2=O)CC(C)(C)N1 [Example 1.4, 1,3-bis[2,2,6,6-tetramethyl-4-piperidylamino]cyclobutenediylium-2,4-diolate] | – | – | – | – | Solubility of pure compound in 10% acetic acid [4]: < 0.1 g/100 g 10% HAc
8 | CCCCN(c1c([O-])c(=[N+](CCCC)C2CC(C)(C)NC(C)(C)C2)c1=O)C1CC(C)(C)NC(C)(C)C1 [Example 3, 1,3-Bis[N-n-butyl-N-(2,2,6,6-tetramethyl-4-piperidyl)amino]cyclobutenediylium-2,4-diolate] | – | – | < 100 | 800 (≈ 1590 µM) | –
9 | CC(C)CN(c1c([O-])c(=[N+](CC(C)C)C2CC(C)(C)NC(C)(C)C2)c1=O)C1CC(C)(C)NC(C)(C)C1 [Example 4, 1,3-Bis[N-isobutyl-N-(2,2,6,6-tetramethyl-4-piperidyl)amino]cyclobutenediylium-2,4-diolate] | – | – | < 100 | 700 (≈ 1390 µM) | –
10 | CCCCCCN(c1c([O-])c(=[N+](CCCCCC)C2CC(C)(C)NC(C)(C)C2)c1=O)C1CC(C)(C)NC(C)(C)C1 [Example 5, 1,3-Bis[N-n-hexyl-(2,2,6,6-tetramethyl-4-piperidyl)amino]cyclobutenediylium-2,4-diolate] | – | – | < 100 | 300 (≈ 537 µM) | –
11 | CCCCCCCCN(c1c([O-])c(=[N+](CCCCCCCC)C2CC(C)(C)NC(C)(C)C2)c1=O)C1CC(C)(C)NC(C)(C)C1 [Example 6, 1,3-Bis[N-n-octyl-N-(2,2,6,6-tetramethyl-4-piperidyl)amino]cyclobutenediylium-2,4-diolate] | – | – | < 100 | 200 (≈ 325 µM) | –
12 | CC1(C)CC(N(CCO)c2c([O-])c(=[N+](CCO)C3CC(C)(C)NC(C)(C)C3)c2=O)CC(C)(C)N1 [Example 7, 1,3-Bis[N-2-hydroxyethyl-N-(2,2,6,6-tetramethyl-4-piperidyl)amino]cyclobutenediylium-2,4-diolate] | – | – | – | – | Stabilizing effect in polypropylene, light exposure to break [7]: 375 h
13 | CC1(C)CC(OCCCN=c2c(O)c(NCCCOC3CC(C)(C)NC(C)(C)C3)c2=O)CC(C)(C)N1 [Example 9, 1,3-Bis[2,2,6,6-tetramethyl-4-piperidyloxypropylamino]cyclobutenediylium-2,4-diolate] | 1,135 h | 820 | 2400 (≈ 4740 µM) | 9500 (≈ 18700 µM) | –
14 | CC(CO)N=c1c(O)c(NC(C)CO)c1=O (stereo not drawn) [F, 1,3-Bis[(2-hydroxy-1-methylethyl)amino]cyclobutenediylium-2,4-diolate, reference compound] | – | – | – | – | solubility [4]: 222 mg/mL (≈ 973000 µM)
15 | O=c1c(N2CCCCC2)c([O-])c1=[N+]1CCCCC1 [G, 1,3-Bispiperidinocyclobutenediylium-2,4-diolate, reference compound] | 619 h | 530 | – | – | Stabilizing effect in polypropylene, light exposure to break ([7]; 0.2% by wt. stabilizer): 212 h

Continued, in another order:

Row | Stabilizing effect in polyamide 12, light exposure to break [3, 9] | Stabilizing effect in polyamide 12, light exposure to break [3, 10] [h] | Structure (SMILES) | solubility ([8]; 22° C.) [µg/mL] | solubility ([8]; 100° C.) [µg/mL] | further results
16 | 1,120 h | 780 | CC1(C)CC(N=c2c(O)c(NC3CC(C)(C)NC(C)(C)C3)c2=O)CC(C)(C)N1 [Example 1.2, 1,3-bis[2,2,6,6-tetramethyl-4-piperidylamino]cyclobutenediylium-2,4-diolate] | – | – | Solubility of pure compound in 10% acetic acid [4]: 2.4 g/100 g 10% HAc
17 | 976 h | 683 | CC1(C)CC(N=c2c(O)c(NC3CC(C)(C)NC(C)(C)C3)c2=O)CC(C)(C)N1 [Example 1.3, 1,3-bis[2,2,6,6-tetramethyl-4-piperidylamino]cyclobutenediylium-2,4-diolate] | – | – | Solubility of pure compound in 10% acetic acid [4]: 5.0 g/100 g 10% HAc
18 | 1,121 h | 720 | CC1(C)CC(N=c2c(O)c(NC3CC(C)(C)NC(C)(C)C3)c2=O)CC(C)(C)N1 [Example 1.5, 1,3-bis[2,2,6,6-tetramethyl-4-piperidylamino]cyclobutenediylium-2,4-diolate] | – | – | Solubility of pure compound in 10% acetic acid [4]: 0.9 g/100 g 10% HAc
